In the supplement of paper PMC6045584:
± gives the standard deviation of the averaged measurements.

Key:
[1] = compound: CO[C@H]1C[C@@H]2CC[C@@H](C)[C@@](O)(O2)C(=O)C(=O)N2CCCC[C@H]2C(=O)O[C@H]([C@H](C)C[C@@H]2CC[C@@H](OCCO)[C@H](OC)C2)CC(=O)[C@H](C)/C=C(\C)[C@@H](O)[C@@H](OC)C(=O)[C@H](C)C[C@H](C)/C=C/C=C/C=C/1C [EVEROLIMUS]; experiment: surviving fraction relative to DMSO-only wells; higher = less growth inhibition; details: exposure time: 5 days
Procedure, shortened: (§1)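 Lines were retained only if, across three screens, replicate Pearson r was >0.7 and median Z' was >0.3. Viability was measured as CellTiter-Glo luminescence and reported as surviving fraction relative to the median of DMSO-only wells. Readings followed 10 minutes at room temperature, after log-phase tumour cells seeded at 250–500 per well in 384-well plates had been exposed, from 24 hours after seeding, continuously for five days to inhibitors at 0.5, 1, 5, 10, 50, 100, 500 and 1000 nM.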

[2] = compound: NC1(c2ccc(-c3nc4ccn5c(=O)[nH]nc5c4cc3-c3ccccc3)cc2)CCC1 [MK2206]; experiment: as above; details: exposure time: 5 days
Procedure, shortened: as §1

Row | Test System | surviving fraction ([1]; 0.5 nM) | surviving fraction ([1]; 1 nM) | surviving fraction ([1]; 5 nM) | surviving fraction ([1]; 10 nM) | surviving fraction ([1]; 50 nM) | surviving fraction ([1]; 100 nM) | surviving fraction ([1]; 500 nM) | surviving fraction ([1]; 1000 nM) | surviving fraction ([2]; 0.5 nM) | surviving fraction ([2]; 1 nM) | surviving fraction ([2]; 5 nM) | surviving fraction ([2]; 10 nM) | surviving fraction ([2]; 50 nM) | surviving fraction ([2]; 100 nM) | surviving fraction ([2]; 500 nM) | surviving fraction ([2]; 1000 nM)
1 | SUM159 BREAST | 1.08 ± 0.023 | 1.09 ± 0.024 | 0.921 ± 0.047 | 0.851 ± 0.04 | 0.852 ± 0.06 | 0.807 ± 0.014 | 0.808 ± 0.022 | 0.784 ± 0.021 | 1.08 ± 0.04 | 1.093 ± 0.0081 | 1.07 ± 0.024 | 1.11 ± 0.03 | 1.06 ± 0.015 | 1.08 ± 0.02 | 1.09 ± 0.029 | 1.08 ± 0.018
2 | SUM44 BREAST | 0.853 ± 0.24 | 0.723 ± 0.16 | 0.718 ± 0.12 | 0.713 ± 0.12 | 0.819 ± 0.25 | 0.804 ± 0.16 | 0.723 ± 0.17 | 0.711 ± 0.11 | 1.09 ± 0.17 | 1.19 ± 0.28 | 1.14 ± 0.24 | 1.22 ± 0.31 | 0.993 ± 0.051 | 1.13 ± 0.21 | 1.02 ± 0.18 | 1.09 ± 0.34
3 | MDAMB134 BREAST | 0.843 | 0.789 ± 0.071 | 0.63 ± 0.069 | 0.642 ± 0.11 | 0.616 ± 0.1 | 0.688 ± 0.11 | 0.569 ± 0.11 | 0.573 ± 0.09 | 1 ± 0.079 | 0.89 ± 0.29 | 0.921 ± 0.0014 | 0.891 ± 0.14 | 0.703 ± 0.016 | 0.783 ± 0.072 | 0.629 ± 0.13 | 0.673 ± 0.18
4 | MDAMB231 BREAST | 0.779 ± 0.021 | 0.73 ± 0.028 | 0.621 ± 0.029 | 0.5901 ± 0.005 | 0.591 ± 0.022 | 0.575 ± 0.019 | 0.541 ± 0.038 | 0.521 ± 0.038 | 0.954 ± 0.019 | 1.006 ± 0.0089 | 0.976 ± 0.021 | 0.972 ± 0.024 | 0.903 ± 0.027 | 0.934 ± 0.033 | 0.869 ± 0.027 | 0.856 ± 0.011
5 | CME SYNOVIAL | 1.2 ± 0.12 | 1.2 ± 0.2 | 1.29 ± 0.071 | 1.15 ± 0.16 | 0.885 ± 0.096 | 0.828 ± 0.066 | 0.66 ± 0.085 | 0.77 ± 0.1 | 1.25 ± 0.18 | 1.22 ± 0.043 | 1.35 ± 0.13 | 1.35 ± 0.099 | 1.18 ± 0.085 | 1.23 ± 0.18 | 1.13 ± 0.099 | 0.901 ± 0.093
6 | HCC1954 BREAST | 0.4 ± 0.05 | 0.376 ± 0.082 | 0.399 ± 0.074 | 0.428 ± 0.08 | 0.321 ± 0.014 | 0.308 ± 0.016 | 0.249 ± 0.039 | 0.275 ± 0.037 | 1.06 ± 0.16 | 0.988 ± 0.088 | 1.14 ± 0.14 | 1.18 ± 0.13 | 0.896 ± 0.035 | 0.9938 ± 0.0039 | 0.482 ± 0.082 | 0.304 ± 0.0067
7 | SG32 HEADNECK | 1.22 ± 0.19 | 1.22 ± 0.15 | 1.44 ± 0.47 | 1.01 ± 0.14 | 0.813 ± 0.052 | 0.601 ± 0.082 | 0.556 ± 0.025 | 0.499 ± 0.026 | 1.04 ± 0.053 | 0.975 ± 0.3 | 1.08 ± 0.24 | 1.17 ± 0.19 | 1.51 ± 0.17 | 1.08 ± 0.13 | 0.964 ± 0.073 | 0.83 ± 0.1
8 | HCC70 BREAST | 0.866 ± 0.073 | 0.749 ± 0.059 | 0.606 ± 0.017 | 0.536 ± 0.024 | 0.536 ± 0.052 | 0.543 ± 0.019 | 0.44 ± 0.054 | 0.429 ± 0.01 | 1.03 ± 0.063 | 1.1 ± 0.08 | 1.13 ± 0.11 | 1.1 ± 0.12 | 0.93 ± 0.076 | 0.869 ± 0.094 | 0.39 ± 0.033 | 0.312 ± 0.014
9 | MHM BONE | 0.926 ± 0.063 | 0.864 ± 0.049 | 0.743 ± 0.057 | 0.696 ± 0.059 | 0.664 ± 0.029 | 0.672 ± 0.019 | 0.63 ± 0.011 | 0.638 ± 0.032 | 0.981 ± 0.021 | 0.9797 ± 0.0065 | 1.01 ± 0.024 | 1.05 ± 0.027 | 0.963 ± 0.035 | 0.959 ± 0.026 | 0.89 ± 0.04 | 0.8973 ± 0.0085
10 | NY BONE | 0.789 ± 0.012 | 0.766 ± 0.024 | 0.729 ± 0.01 | 0.688 ± 0.019 | 0.692 ± 0.013 | 0.707 ± 0.015 | 0.644 ± 0.032 | 0.6403 ± 0.0042 | 1.03 ± 0.035 | 1.06 ± 0.024 | 1.05 ± 0.012 | 1.05 ± 0.033 | 0.96 ± 0.047 | 0.954 ± 0.023 | 0.882 ± 0.014 | 0.853 ± 0.017
